Values quoted from earlier work, collected in paper PMC9010276 (Clinical and Translational Science, 2021).
Where two headings read alike, the source gives them in different places.

Legend:
[1] = studies with registered drugs

## COC[C@@H](NC(C)=O)C(=O)NCc1ccccc1 [lacosamide]
[1]
  Analgesic effects on experimental pain tests: limited and variable analgesic effects

## Cc1cccc(C)c1OCC(C)N (stereo not drawn) [mexiletine]
Nonselective Nav inhibitors
  Skin rash after administration: mild skin rash
[1]
  Analgesic effects on experimental pain tests: limited and variable analgesic effects

## O=C1NC(=O)C(c2ccccc2)(c2ccccc2)N1 [phenytoin]
Nonselective Nav inhibitors
  Skin rash after administration: mild skin rash

## CCN(CC)CC(=O)Nc1c(C)cccc1C [lidocaine]
[1]
  Analgesic effects on experimental pain tests: limited and variable analgesic effects

## Nc1[nH]ncc1-c1cc(Cl)ccc1Oc1cc(F)c(S(=O)(=O)Nc2cscn2)cc1Cl [PF‐05089771]
After multiple dosing at higher dose levels
  Skin rash after administration: mild skin rash
